Where a name gives a salt, the structure may show the parent alone.
Legend:
PC12 neuronal cell = experiment: Neuronal survival of hydrogen peroxide treated PC-12 cells; type: cell-based; conditions: 1 mM H2O2 for 1 hour, 24 hours incubation, viable cells counted
Method: Neuronal Survival Experiments. For survival experiments, PC12 neuronal cell were seeded in 6-well plates at a density of 1×10^5 per well in Dulbecco's modified Eagle's medium (DMEM) supplemented with 1% fetal bovine serum (FBS) and 100 ng/ml nerve growth factor (NGF), herein after (“Media”), for 3 days. Media was changed every 3 days. Cells were treated in the presence or absence of 1 mM hydrogen peroxide (H2O2) for 1 hour in the presence or absence of either sildenafil Citrate, vardenafil, or tardalafil at 0.1-fold physiologic dose (0.5 μM, 0.3 μM and 0.4 μM, respectively), physiologic dose (5 μM, 3 μM and 4 μM, respectively) and 10-fold physiologic dose (50 μM, 30 μM and 40 μM, respectively). Treated cells were incubated for 24 hours at 37° C. Viable cells were detached and counted using an automated counter.

[1] = system: post-radical prostatectomy erection dysfunction; experiment: Clinical study: sildenafil citrate at the operative site in robot-assisted radical prostatectomy, potency recovery; type: in vivo, humans; conditions: 147 men
Method: Clinical Studies. For effective study in humans, 147 men that underwent robot-assisted radical prostatectomy were treated with sildenafil citrate at the operative site. Potency was reported in 24.2%, 84.2% and 93.3% of the subjects at three, six, and twelve months post-operative, respectively.

[2] = system: spinal motor and non-motor neurons; conditions: cited from earlier work

COc1ccc(C2CNC(=O)C2)cc1OC1CCCC1 (centres unmarked) [rolipram]
protection against H2O2-induced cell death (neuronal viability) (PC12 neuronal cell): significant protection

CCCc1nn(C)c2c(=O)[nH]c(-c3cc(S(=O)(=O)N4CCN(C)CC4)ccc3OCC)nc12 [sildenafil citrate]
Potency reported, % of subjects ([1]; six months post-operative): 84.2%
Potency reported, % of subjects ([1]; three months post-operative): 24.2%
Potency reported, % of subjects ([1]; twelve months post-operative): 93.3%

CCCOc1ccccc1-c1nc2nn[nH]c2c(=O)[nH]1 [zaprinas]
protection against acute Reactive Oxygen Species-induced neurotoxicity [2]: protect

Source: US20130225597A1, “USE OF PHOSPHODIESTERASE INHIBITOR TO ENHANCE POST-SURGICAL ERECTION IN MEN UNDERGOING RADICAL PROSTATECTOMY” (University of Medicine and Dentistry of New Jersey, priority 2010, published 2013)
